Among the data in BindingDB's records for patent US10188615 (ACUCELA INC., 2019) are IC50 values, retold here.

The IC50 is the concentration needed to halve the response being measured.

This assay addresses T1, Retinoid isomerohydrolase (Human, UniProt Q16518).
T1 sequence (Q16518 whole entry): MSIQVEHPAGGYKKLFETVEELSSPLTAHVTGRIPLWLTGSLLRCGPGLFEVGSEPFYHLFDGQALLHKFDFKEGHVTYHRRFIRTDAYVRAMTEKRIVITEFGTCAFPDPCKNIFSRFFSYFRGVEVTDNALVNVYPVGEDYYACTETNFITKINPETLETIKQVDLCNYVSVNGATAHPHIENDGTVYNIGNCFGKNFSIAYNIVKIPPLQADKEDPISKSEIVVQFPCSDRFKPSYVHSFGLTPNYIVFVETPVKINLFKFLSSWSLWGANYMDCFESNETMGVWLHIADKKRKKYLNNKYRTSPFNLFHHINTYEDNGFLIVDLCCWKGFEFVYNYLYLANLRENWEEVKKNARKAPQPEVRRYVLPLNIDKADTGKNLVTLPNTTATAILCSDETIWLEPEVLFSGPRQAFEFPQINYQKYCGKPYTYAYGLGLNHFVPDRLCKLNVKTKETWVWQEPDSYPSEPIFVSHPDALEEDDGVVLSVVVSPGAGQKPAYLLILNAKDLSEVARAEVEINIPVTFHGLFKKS
Put plainly: In Vitro Isomerase Inhibition Assay.
In the case of `NCCC(O)c1cccc(OCCCC(N)=O)c1` (stereo not drawn) [US10188615, Example 149], the IC50 entry is “in the range around 5500 nM”.

On to `COCCOc1cccc(CCCN)c1` [US10188615, Example 40], for which the IC50 result was “in the range around 5500 nM”.

On to `NCCCc1cccc(OCC2CC2)c1` [US10188615, Example 60], for which the IC50 result is “in the range around 550 nM”.

Take `NCC(O)c1cccc(OCC2CCCCC2)c1` (stereo not drawn) [US10188615, Example 127]: the IC50 entry is “in the range around 550 nM”.

For `CCCC(O)COc1cccc(CCCN)c1` (stereo not drawn) [US10188615, Example 167], the IC50 entry is “in the range around 550 nM”.

On to `NCCC(O)c1cccc(OCCO)c1` (stereo not drawn) [US10188615, Example 109], for which the IC50 result was “in the range around 5500 nM”.

Molecule `NC[C@H](O)[C@@H](O)c1cccc(OCC2CCCCC2)c1` [US10188615, Example 177] returned an IC50 of 100 to 1000 nM.

Consider `NCCC(O)c1cccc(OCc2ccccc2)c1` (stereo not drawn) [US10188615, Example 37], for which the IC50 entry is “in the range around 55 nM”.

Consider `NCCOc1cccc(OCCCCOCc2ccccc2)c1` [US10188615, Example 100], for which the IC50 entry is “in the range around 5500 nM”.

As to `C[C@@H](CN)[C@@H](O)c1cccc(OCC2CCCCC2)c1` [US10188615, Example 75], the IC50 entry is “in the range around 55 nM”.

Turning to `CCCC(CCC)COc1cccc(O[C@@H](C)CN)c1` [US10188615, Example 63], the IC50 entry was “in the range around 550 nM”.

As to `NCCOc1cccc(OCCCCO)c1` [US10188615, Example 156], the IC50 entry is “in the range around 550 nM”.

As for `CC(C)CCOc1cccc(CCCN)c1` [US10188615, Example 33], the IC50 entry is “in the range around 550 nM”.

As to `NCCOc1cccc(OCC2CCC2)c1` [US10188615, Example 58], the IC50 entry was “in the range around 550 nM”.

Take `NCCCc1cccc(OCc2nccs2)c1` [US10188615, Example 122]: the IC50 result was “in the range around 550 nM”.

For the molecule `CC(=O)O[C@@H]1CCCC[C@H]1COc1cccc([C@H](O)CCN)c1` [US10188615, Example 173], the IC50 result is “in the range around 55 nM”.

Take `CC(=O)O[C@@H]1CCCC[C@@H]1COc1cccc([C@H](O)CCN)c1` [US10188615, Example 174]: the IC50 entry was “in the range around 55 nM”.

As for `NCCCc1cccc(OCc2c(Cl)cccc2Cl)c1` [US10188615, Example 91], the IC50 entry is “in the range around 550 nM”.

For the molecule `CCCC(CCC)COc1cccc(C[C@H](O)CN)c1` [US10188615, Example 67], the IC50 entry is “in the range around 55 nM”.

In the case of `NCCOc1cccc(OCCc2ccccc2)c1` [US10188615, Example 47], the IC50 result is “in the range around 55 nM”.

In the case of `NCCC(O)c1cccc(OCCCCCOCc2ccccc2)c1` (stereo not drawn) [US10188615, Example 115], the IC50 result was “in the range around 55 nM”.

On to `C[C@@H](CN)[C@H](O)c1cccc(OCC2CCCCC2)c1` [US10188615, Example 73], for which the IC50 entry was “in the range around 55 nM”.

Take `CCCC(CCC)COc1cccc(C[C@@H](O)CN)c1` [US10188615, Example 68]: the IC50 entry was “in the range around 55 nM”.

In the case of `CNCCC(O)c1cccc(OCC2CCCCC2)c1` (stereo not drawn) [US10188615, Example 187], the IC50 entry is “in the range around 55 nM”.

Consider `NCCC(CO)c1cccc(OCC2CCCCC2)c1` (stereo not drawn) [US10188615, Example 80], for which the IC50 result is “in the range around 550 nM”.

As to `NCCCc1cccc(OCC2CCC2)c1` [US10188615, Example 61], the IC50 entry was “in the range around 550 nM”.

As for `NCCC(O)(CO)c1cccc(OCC2CCCCC2)c1` (stereo not drawn) [US10188615, Example 79], the IC50 result is “in the range around 5500 nM”.

In the case of `C[C@@H](CN)Oc1cccc(OCC2CCCC2)c1` [US10188615, Example 64], the IC50 entry was “in the range around 550 nM”.

For the molecule `Cc1cc(OCCN)cc(OCC2CCCCC2)c1` [US10188615, Example 154], the IC50 entry is “in the range around 55 nM”.

Consider `CCC(CC)COc1cccc(O[C@H](C)CN)c1` [US10188615, Example 50], for which the IC50 entry is “in the range around 550 nM”.

For `NCCCc1cccc(OCc2ccccc2)c1` [US10188615, Example 59], the IC50 entry was “in the range around 550 nM”.

As to `Cc1ccc(OCC2CCCCC2)cc1OCCN` [US10188615, Example 160], the IC50 result was “in the range around 5500 nM”.

As for `Cc1cccc(C)c1COc1cccc(CCCN)c1` [US10188615, Example 137], the IC50 entry was “in the range around 5500 nM”.

Turning to `CCCC(CCC)COc1cccc(O[C@H](C)CN)c1` [US10188615, Example 51], the half-inhibitory concentration (IC50) entry is “in the range around 550 nM”.

On to `NCCCc1cccc(OCCCc2ccccc2)c1` [US10188615, Example 96], for which the IC50 entry was “in the range around 550 nM”.

For `C=C(CCN)c1cccc(OCC2CCCCC2)c1` [US10188615, Example 78], the IC50 entry is “in the range around 550 nM”.

Consider `CCC(CC)COc1cccc(C[C@@H](O)CN)c1` [US10188615, Example 69], for which the IC50 result is “in the range around 55 nM”.

Consider `CCC(CC)COc1cccc(C[C@H](O)CN)c1` [US10188615, Example 66], for which the IC50 entry is “in the range around 55 nM”.

As to `C[C@@H](CN)Oc1cccc(OCC2CCCCC2)c1` [US10188615, Example 65], the half-maximal inhibitory concentration (IC50) result is “in the range around 550 nM”.

As for `COCCOc1cccc(C(O)CCN)c1` (stereo not drawn) [US10188615, Example 86], the IC50 result was “in the range around 550 nM”.

On to `NCC#Cc1cccc(OCC2CCCCC2)c1` [US10188615, Example 197], for which the IC50 entry was “in the range around 55 nM”.

With `COCCCOc1cccc(C(O)CCN)c1` (stereo not drawn) [US10188615, Example 108], the IC50 result is “in the range around 55 nM”.

Turning to `NCCCc1cccc(OCCOCc2ccccc2)c1` [US10188615, Example 102], the IC50 result was “in the range around 550 nM”.

On to `NC[C@@H](O)[C@@H](O)c1cccc(OCC2CCCCC2)c1` [US10188615, Example 180], for which the IC50 entry is “in the range around 55 nM”.

Take `NCCCc1cccc(OCCCO)c1` [US10188615, Example 98]: the IC50 result was “in the range around 5500 nM”.

In the case of `Cc1cccc(C)c1COc1cccc(OCCN)c1` [US10188615, Example 140], the IC50 entry was “in the range around 550 nM”.

Turning to `NCCCc1cccc(OC[C@H]2CCCC[C@H]2O)c1` (relative stereo) [US10188615, Example 147], the IC50 result is “in the range around 55 nM”.

For `NCCC(O)c1cccc(OCCCCO)c1` (stereo not drawn) [US10188615, Example 165], the IC50 entry is “in the range around 550 nM”.

As to `CCCCCOc1cccc(CCCN)c1` [US10188615, Example 44], the concentration for half-maximal inhibition (IC50) result was “in the range around 550 nM”.

As for `NCCOc1cccc(OCC2CC2)c1` [US10188615, Example 57], the IC50 entry was “in the range around 550 nM”.

Turning to `CCC(O)(CC)COc1cccc(CCCN)c1` [US10188615, Example 32], the IC50 entry was “in the range around 55 nM”.

For the molecule `CC(C)C(O)COc1cccc(CCCN)c1` (stereo not drawn) [US10188615, Example 152], the IC50 entry is “in the range around 550 nM”.

Regarding `C[C@H](CN)Oc1cccc(OCC2CCCCC2)c1` [US10188615, Example 53], the IC50 result is “in the range around 550 nM”.
